Experimental data reported in patent US20070142386A1, “New 2-substituted, 4-amino-thiazolo[4,5-d] pyrimidines, useful as chemokine receptor antagonists, esp. cx3cr1” (AstraZeneca, priority 2003, published 2007).
In brackets after ≈: the same amount, converted by molar mass. Read-outs that look alike come from different tables or passages of the source.

Key:
[1] = Solubility assay (0.1M phosphate buffer, pH 7.4, 24 hours); assay type: physicochemical; details: 100 μM from DMSO stock in 0.1M phosphate buffer, pH 7.4, room temperature, upper limit 100 μM, LOQ 0.1 μM
Procedure: 100 μM Solutions in duplicate, prepared by dilution from a 10 mM DMSO stock solution of the test compound, were incubated in 0.1M phosphate buffer, pH 7.4, in a 96-well plate (PP plate, 350 μl U-shaped wells, COSTAR) on a plate bed shaker (IKA®-Schuttler MTS-4, IKA Labortechnik) at 300 rpm and room temperature (20-22° C.) for 24 hours.
The solutions were transferred to a MultiScreen™-R4 96-well filtration plate (LCR membrane, 0.4 μm hydrophilic PTFE, non-sterile glass-filled PP plate, 350 μl wells, Millipore) and filtered under vacuum to a 96-well collection plate (PP plate, 350 μl U-shaped wells, COSTAR), called the analyte plate, using Millipore Vacuum Manifold equipment. The analyte plate was covered by heat-sealing with an aluminium foil coated with a PP seal layer (AB-0813, pierceable sealing foil strong, ABgene).
LC-UV-MS analysis was performed using a generic LC method.
Single point quantification was performed against two 100 μM standards of the test compound dissolved in DMSO at the wavelength showing maximum UV absorbance as extracted from the DAD-trace (210-400 nm). The upper limit of the screen method is 100 μM with a LOQ of 0.1 μM.

[2] = biological target: T1, human fractalkine receptor (hCX3CR1) (Homo sapiens, UniProt P49238); assay: Ligand binding assay (competition binding with [125I]-fractalkine on cell membranes)
T1 construct: expressed in transfected cells; host or cells: HEKS 293 (human embryonic kidney suspension) cells stably expressing the chimeric G-protein Gαqi5; Membranes were used in the assay
T1 sequence (P49238 1-355): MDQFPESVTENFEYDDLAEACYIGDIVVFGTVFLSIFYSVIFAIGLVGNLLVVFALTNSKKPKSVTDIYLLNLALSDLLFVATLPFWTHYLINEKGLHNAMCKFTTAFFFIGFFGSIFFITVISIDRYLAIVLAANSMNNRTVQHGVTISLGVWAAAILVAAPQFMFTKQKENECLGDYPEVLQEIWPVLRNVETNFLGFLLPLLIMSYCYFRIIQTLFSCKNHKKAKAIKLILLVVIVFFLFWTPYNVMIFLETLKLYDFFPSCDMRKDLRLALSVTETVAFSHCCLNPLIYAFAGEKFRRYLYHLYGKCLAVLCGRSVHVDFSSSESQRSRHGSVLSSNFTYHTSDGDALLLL
Procedure: Recombinant human fractalkine (hCX3CL1) was purchased from PeproTech Inc., UK. […] Fluo4-AM was purchased from Molecular Probes, US. All other chemicals were of analytical grade.
A stable clone was generated utilizing zeocin (500 μg/ml) and hygromycin (100 μg/ml) selection. For further applications the cells were maintained in Dulbecco's modified Eagle's medium/Ham's nutrient mix F12 (DMEMF12) containing pyridoxine and supplemented with 10% (v/v) fetal bovine serum, 2 mM L-glutamine, 100 U/ml penicillin and 100 mg/ml streptomycin, 250 μg/ml zeocin and 100 μg/ml hygromycin.
For the competition binding assay cells were harvested in buffer containing 10 mM Tris-HCl, pH 7.4, 5 mM ethylenediaminetetra-aceticacid (EDTA) and 0.1 mg/ml bacitracin (a protease inhibitor) and centrifuged at 300×g for 10 min. Cell pellets were then resuspended in harvesting buffer, pooled and homogenised using Dounce homogeniser. Cell membranes were centrifuged at 48000×g for 10 min and then resuspended in harvesting buffer using Ultra-Turrax T8 (IKA Labortechnik, Germany). […] Membrane aliquotes were stored at −70° C. […] MeltiLex solid scintillator (PerkinElmer LifeSciences,US) were melted onto filters and radioactivity was measured in a Wallac1205 Betaplate counter (PerkinElmer LifeScience, US).

[3] = 21 °C, aqueous buffer, kinetic from dmso stock

solubility at 24 h [1, 3] [µM]	SMILES	further results
8.5 (≈ 3.2 µg/mL)	CC(C)[C@H](CO)Nc1nc(SCc2ccccc2)nc2[nH]c(=O)sc12 [drawing 21 X = S, 5-(Benzylthio)-7-{[(1R)-1-(hydroxymethyl)-2-methylpropyl]amino}[1,3]thiazolo[4,5-d]pyrimidin-2(3H)-one, reference compound]	–
63.6 (≈ 24.6 µg/mL)	CC(C)C[C@H](CO)Nc1nc(OCCc2ccccc2)nc2nc(N)sc12 [Example 3, (2R)-2-{[2-Amino-5-(2-phenylethoxy)[1,3]thiazolo[4,5-d]pyrimidin-7-yl]amino}-4-methylpentan-1-ol]	–
1.3 (≈ 0.508 µg/mL)	CC(C)C[C@H](CO)Nc1nc(SCc2ccccc2)nc2[nH]c(=O)sc12 [drawing 18 X = S, 5-(Benzylthio)-7-{[(1R)-1-(hydroxymethyl)-3-methylbutyl]amino}[1,3]thiazolo[4,5-d]pyrimidin-2(3H)-one, reference compound]	–
1.3 (≈ 0.548 µg/mL)	CC(C)C[C@H](CO)Nc1nc(SCc2cccc(F)c2F)nc2[nH]c(=O)cnc12 [drawing 17 X = S, 2-[(2,3-Difluorobenzyl)thio]-4-{[(1R)-1-(hydroxymethyl)-3-methylbutyl]amino}pteridin-7(8H)-one, reference compound]	–
> 100	CC(C)C[C@H](CO)Nc1nc([S+]([O-])Cc2cccc(F)c2F)nc2[nH]c(=O)sc12 (mixture of isomers) [Example 45, 5-[(2,3-Difluorobenzyl)-(RS,SS)-sulfinyl]-7-{[(1R)-1-(hydroxymethyl)-3-methylbutyl]amino}[1,3]thiazolo[4,5-d]pyrimidin-2(3H)-one]	Ki ([2]; 10 pM [125I]-fractalkine, membranes of HEKS 293 cells expressing hCX3CR1, 25° C., 24 h, read-out: Ki): 38 nM
78.5 (≈ 31.8 µg/mL)	COc1cccc(COc2nc(N[C@@H](CO)CC(C)C)c3sc(=O)[nH]c3n2)c1 [Example 26, 7-{[(1R)-1-(Hydroxymethyl)-3-methylbutyl]amino}-5-[(3-methoxybenzyl)oxy][1,3]thiazolo[4,5-d]pyrimidin-2(3H)-one]	–
–	CC(C)C[C@H](CO)N(C)c1nc([S+]([O-])CCc2ccccc2Br)nc2nc(N)sc12 (mixture of isomers) [Example 13, (R)-2-[(2-Amino-5-{[2-(2-bromophenyl)ethyl]-(RS,SS)-sulfinyl}[1,3]thiazolo[4,5-d]pyrimidin-7-yl)(methyl)amino]-4-methylpentan-1-ol]	solubility at 24 h [1]: 33.8 µM (≈ 17.3 µg/mL)
72.9 (≈ 29.4 µg/mL)	COc1cccc(COc2nc(N[C@@H](CO)CC(C)C)c3sc(N)nc3n2)c1 [Example 2, (2R)-2-({2-Amino-5-[(3-methoxybenzyl)oxy][1,3]thiazolo[4,5-d]pyrimidin-7-yl}amino)-4-methylpentan-1-ol]	–
2.1 (≈ 0.896 µg/mL)	CC(C)C[C@H](CO)Nc1nc(SCc2cccc(F)c2F)nc2[nH]c(=O)sc12 [drawing 20 X = S, 5-[(2,3-Difluorobenzyl)thio]-7-{[(1R)-1-(hydroxymethyl)-3-methylbutyl]amino}[1,3]thiazolo[4,5-d]pyrimidin-2(3H)-one, reference compound]	–
44 (≈ 19.2 µg/mL)	CC(C)CC(CO)Nc1nc([S+]([O-])Cc2cccc(F)c2F)nc2[nH]c(=O)cnc12 [Example 24, 2-[(2,3-Difluorobenzyl)-(RS,SS)-sulfinyl]-4-(1R)-1-(hydroxymethyl)-3-methylbutyl]amino}pteridin-7(8H)-one]	–
> 100	CC(C)C(CO)Nc1nc([S+]([O-])Cc2ccccc2)nc2[nH]c(=O)sc12 [Example 49, 5-[Benzyl-(RSSS)-sulfinyl]-7-{[(1R)-1-(hydroxymethyl)-2-methylpropyl]amino}[1,3]thiazolo[4,5-d]pyrimidin-2(3H)-one]	–

SMILES	solubility at 24 h [1, 3] [µM]	further results
CC(C)C[C@H](CO)Nc1nc(OCc2ccccc2)[nH]c2nc(=O)sc1-2 [Example 25, 5-(Benzyloxy)-7-{[(1R)-1-(hydroxymethyl)-3-methylbutyl]amino}[1,3]thiazolo[4,5-d]pyrimidin-2(3H)-one]	29 (≈ 10.9 µg/mL)	Ki [2]: 44.6 nM
